This is an account of results in ChEMBL document CHEMBL5131551, “Novel Bicyclic Dione Compounds as KRAS Inhibitors for Treating Cancer” (ACS Med Chem Lett, 2022).

Bounds are passed on as bounds.

The target of test [1] is T1, GTPase KRas (Homo sapiens, UniProt P01116, G12C). Nature of the test: Inhibition of KRAS G12C mutant in human MIA PaCa-2 cells assessed as reduction in phosphorylated ERK level incubation for 2 to 4 hrs by HTRF assay. Format: cell-based.
For test [2], the target named is T1, GTPase KRas. Nature of the test: Inhibition of BODIPY loaded KRAS G12C mutant (unknown origin) assessed as inhibition of GDP-GTP exchange rate preincubated for 2 hrs and measured after 2 hrs in presence of SOS1-GppNHp mixture by BODIPY fluorescence based PHERAstar plate reader analysis.

A word on the IC50: it is the concentration that gives 50% inhibition.

T1 sequence (P01116 whole entry G12C): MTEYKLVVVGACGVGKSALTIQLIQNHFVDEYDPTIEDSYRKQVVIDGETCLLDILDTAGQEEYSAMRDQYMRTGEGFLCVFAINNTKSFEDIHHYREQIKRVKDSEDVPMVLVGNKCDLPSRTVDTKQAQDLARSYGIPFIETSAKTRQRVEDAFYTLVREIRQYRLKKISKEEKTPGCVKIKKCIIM

For `C=CC(=O)N1CC(F)(Cn2c(=O)c(=O)n(-c3c(C)ccnc3C(C)C)c3nc(-c4c(F)ccc(F)c4O)c(Cl)cc32)C1`, the IC50 in test [1] and in test [2] was not above 100 nM each time.

Consider `C=CC(=O)N1CC(F)(Cn2c(=O)c(=O)n(-c3c(C)ccnc3C(C)C)c3nc(-c4ccccc4F)c(Cl)cc32)C1`, for which the IC50 in test [1] and in test [2] was not above 100 nM in each case.

For the compound `C=CC(=O)N1CC(F)(Cn2c(=O)c(=O)n(-c3c(C)ccnc3C(C)C)c3nc(-c4c(N)cccc4F)c(Cl)cc32)C1`, the IC50 in test [1] and in test [2] was not above 100 nM throughout.

For `C=CC(=O)N1CC(F)(Cn2c(=O)c(=O)n(-c3c(C)ccnc3C(C)C)c3nc(-c4c(Cl)ccc5c4OCO5)c(Cl)cc32)C1`, the IC50 in test [1] and in test [2] was not above 100 nM throughout.

Turning to `C=CC(=O)N1CC(F)(Cn2c(=O)c(=O)n(-c3c(C)ccnc3C(C)C)c3nc(-c4cccc(Cl)c4Cl)c(Cl)cc32)C1`, the IC50 in test [1] and in test [2] was not above 100 nM throughout.

Take `C=CC(=O)N1CC(F)(Cn2c(=O)c(=O)n(-c3c(C(C)C)cccc3C(C)C)c3nc(-c4cc(O)cc5ccccc45)c(Cl)cc32)C1`: the IC50 in test [1] and in test [2] was not above 100 nM in each case.
